The values below come from PMC4976316, “A pivotal role of vacuolar H^+-ATPase in regulation of lipid production in Phaeodactylum tricornutum” (Scientific Reports, 2016).

The assay concerns the target T1, Vacuolar H^+-ATPase (V-ATPase) (Phaeodactylum tricornutum, UniProt B7G3I2+B7GCN4).
T1 construct: gene PHATRDRAFT_16442; native complex in microsomal membrane protein from algal cells, not purified; subunit genes not identified; with V-type proton ATPase subunit a; V-type proton ATPase catalytic subunit A; V-type proton ATPase subunit B; V-type proton ATPase subunit C; V-type proton ATPase subunit D; V-type proton ATPase subunit E; V-type proton ATPase subunit F; V-type proton ATPase subunit G; V-type proton ATPase subunit H; V-type proton ATPase subunit d
The assay is described as follows: concanamycin A-sensitive ATPase activity (phosphate release) of microsomal membranes. Conditions: 100 nM BFA1 added to the growing culture, enzyme assayed afterwards in microsomes; days-long treatment, indirect effects possible. Type of assay: cell-based.

On to `CO/C1=C\C(C)=C\[C@@H](C)[C@@H](O)[C@@H](C)C/C(C)=C/C=C/[C@H](OC)[C@@H]([C@@H](C)[C@@H](O)[C@H](C)[C@@]2(O)C[C@@H](O)[C@H](C)[C@@H](C(C)C)O2)OC1=O` [BFA1, bafilomycin A1], for which the “% decrease of V-ATPase activity at 100 nM” value is ~ 66%.
